{"source": "patent US10274490B2", "about": "“Magnetic labeling of bacteria” (The General Hospital Corporation, priority 2012, dated 2019)", "key": {"[1]": {"experiment": "Molar extinction coefficient", "format": "physicochemical", "conditions": "592 nm"}, "[2]": {"test_system": "S. aureus (Gram-positive)", "experiment": "Gram staining, bright field microscopy", "format": "cell-based, Staphylococcus aureus", "conditions": "1 mM Crystal Violet-TCO 3 min, iodine, 95% ethanol, Safranin counterstain", "description": "Bacterial cells were smeared onto microscopic slides, and stained with standard crystal violet (20 mM) or CV-TCO (1 mM) in 20% ethanol solution containing 8 mg/ml ammonium oxalate for 3 min. After washing with deionized water, slides were treated with Gram Iodine (BD Biosciences), decolorized with 95% ethanol solution, and counterstained with Gram safranin (BD Biosciences). Slides were observed using a bright field light microscope.\nTo test the efficacy of Crystal Violet-TCO as a staining agent for Gram-positive bacteria, three representative samples were prepared: Staphylococcus aureus (S. aureus; Gram-positive), Escherichia coli (E. coli; Gram-negative), and the mixture of both bacterial species. Bacterial smears on glass slides were stained with a solution of Crystal Violet-TCO (1 mM) or Crystal Violet for 3 min., followed by treatment with Gram's iodine solution for one minute, decolorization with 95% ethanol, and counterstaining with red Safranin solution."}, "[3]": {"test_system": "S. aureus (Gram-positive)", "experiment": "Absorbance at 595 nm / UV-visible spectrometry of stained bacteria", "format": "cell-based, Staphylococcus aureus", "conditions": "E. coli (G−) as comparison", "description": "(§1) Bacterial cells in media were first washed with phosphate buffered saline solution (PBS). For μNMR measurements, absorbance measurements, confocal microscopy, and transmission electron microscopy (TEM), the bacteria (10^8 in 100 μl) were stained with 200 μM CV-TCO in 20% ethanol solution containing 8 mg/ml ammonium oxalate for 5 min. at room temperature, and washed with PBS. Then the bacteria were treated with Gram Iodine solution for 1 min. and decolorized with 95% ethanol solution. For μNMR and confocal microscopy, bacteria were incubated with 50 μg/ml MFNP-Tz in PBS for 20 min. at room temperature, and washed twice with PBS. For confocal microscopy, labeled bacteria were mounted on microscopic slides with Vectashield containing propium iodide (Vector Laboratories), and imaged. For TEM, the stained and decolorized bacteria were incubated with 50 μg/ml GNP-Tz in PBS for 1 h, washed with PBS, and dehydrated with graded ethanol series before applying onto a carbon grid (Ted Pella)."}, "Gram-positive species": {"test_system": "Gram-positive species", "experiment": "μNMR cellular relaxivity of bacteria stained with Crystal Violet-TCO and labeled with MFNP-Tz", "format": "cell-based", "conditions": "panel of bacterial species", "description": "Bacterial cells in media were first washed with phosphate buffered saline solution (PBS). For μNMR measurements, absorbance measurements, confocal microscopy, and transmission electron microscopy (TEM), the bacteria (10^8 in 100 μl) were stained with 200 μM CV-TCO in 20% ethanol solution containing 8 mg/ml ammonium oxalate for 5 min. at room temperature, and washed with PBS. Then the bacteria were treated with Gram Iodine solution for 1 min. and decolorized with 95% ethanol solution. For μNMR and confocal microscopy, bacteria were incubated with 50 μg/ml MFNP-Tz in PBS for 20 min. at room temperature, and washed twice with PBS. […]\nTo test whether bacteria labelled with Crystal Violet-TCO could be magnetically labeled via cycloaddition to the TCO group, bacteria stained with Crystal Violet-TCO were incubated with magnetofluorescent nanoparticles modified with tetrazine (MFNP-Tz). […] The T2 relaxation values of samples were measured using a miniaturized μNMR system. For comparative analyses, the absorption (at 595 nm) of the same samples was also measured. Cellular relaxivity (r2) was obtained by normalizing the measured 1/T2 values with bacterial concentration, and the r2 differences (Δr2) between targeted and control samples were calculated. […]"}, "S. aureus [4]": {"test_system": "S. aureus", "experiment": "μNMR sensitivity of the assay, serially diluted bacterial samples", "format": "cell-based, Staphylococcus aureus", "conditions": "Crystal Violet-TCO and MFNP-Tz", "description": "as §1\nTo measure the sensitivity of the assay, measurements with serially diluted bacterial samples were performed and established a detection limit of about 4,000 bacteria with the experimental set-up used. […] Limit of detection was ˜4000 CFU."}, "S. aureus [5]": {"test_system": "S. aureus", "experiment": "Confocal microscopy (MFNP-Tz) and TEM (GNP-Tz) of Crystal Violet-TCO stained bacteria", "format": "cell-based, Staphylococcus aureus", "description": "as §1\nThe left, middle, and right panels show images of the red channel, green channel, and a merged image of the red and green channels, respectively (Red: propidium iodide for nuclear staining; Green: MNFP-Tz staining; Scale bar=10 μm).\nGold nanoparticles were used instead of magnetic nanoparticles to obtain higher contrast."}, "E. coli (Gram-negative)": {"test_system": "E. coli (Gram-negative)", "experiment": "Confocal microscopy control experiment", "format": "cell-based, Escherichia coli", "conditions": "Crystal Violet-TCO stained, decolorized", "description": "as §1\nThe green channel (left) indicates MNFP-Tz, and the red channel (right) indicates propidium iodide. (Scale bar=5 μm)."}, "[6]": {"test_system": "Gram-positive and Gram-negative bacteria", "experiment": "μNMR detection before and after decolorization", "format": "cell-based", "description": "as §1\nThe magnetic labeling detection strategy using Crystal Violet-TCO can be applied to detect both Gram-positive and Gram-negative bacteria. A modified protocol was adopted in which staining was performed without the decolorization process, which results in labeling both Gram-positive and Grain-negative bacteria, since the Gram-negative bacteria also retain the Crystal Violet-TCO. […]"}, "Nocardia Farcinica": {"test_system": "Nocardia Farcinica", "experiment": "Bioorthogonal labeling with Trehalose-TCO and Oregon Green-Tz, cell fluorescence microscopy", "format": "cell-based", "description": "Nocardia Farcinica bacteria (ATCC 3308) at an OD600 of 0.8 in growth medium (0.1 mL) was added 100 μM Trehalose-TCO, Trehalose-fluorescein or DMSO (as a control) in growth media (1% DMSO). Bacteria were incubated at 37° C. with shaking for 16 h. Bacteria were then centrifuged (7 min., 8000 rpm) and washed (2×100 μL PBS solution containing 2% fetal bovine serum (FBS) and 1 mg/mL bovine serum albumin (BSA) PBS-F).\nBacteria treated with Trehalose-TCO were incubated with 50 μg/mL MFNP-Tz MNFP-Tz or 10 μM Oregon Green-Tz for 20 min. in PBS-F. Bacteria were then centrifuged (7 min., 8000 rpm) and washed (2×100 μL PBS-F). Bacteria were then fixed with 10% PFA in PBS (100 μL) for 20 min., centrifuged and resuspended in 10 μL PBS. 3 μL were spread out on a 96 wells plates (Nunc, Cat No 137103 (Roskilde, Denmark, pre-wet with PBS-F). Bacteria were dried out in an incubator 37 C for 30 min. then mounting media containing […] was added to samples. Imaging was done on a DeltaVision microscope (Applied Precision Instruments) at 60×."}, "Gram-positive bacteria [7]": {"test_system": "Gram-positive bacteria", "experiment": "Fluorescence spectrometry of bacteria labeled with daptomycin-TCO and MFNP-Tz", "format": "cell-based", "conditions": "daptomycin-TCO at various concentrations, then MFNP-Tz", "description": "(§2) For two-step labeling using Daptomycin-TCO, the drug conjugates were incubated in buffer solution containing 5 mM 4-(2-hydroxyethyl)-1-piperazineethanesulfonic acid (HEPES), 5 mM CaCl2, 2% FBS, and 1 mg/ml BSA at room temperature for 30 min. After washing twice with PBS-F, bacterial cells were incubated with 50 μg/ml MFNP-Tz in PBS-F for 20 min. at room temperature.\nFor fluorescence spectrometry, μNMR measurements, and flow cytometry, the cells were fixed in 10% paraformaldehyde (PFA) for 30 min., and then exchanged into PBS solution. Fluorescence measurements were taken using the Safire2 microplate reader (TECAN, Mannedorf, Switzerland). Increased relative fluorescence intensity (% RFU) values were calculated as 100×(Itarget−Inon)/Inon, where Itarget and Inon are intensity values of targeted and non-targeted bacteria, respectively. Flow cytometry was performed using LSRII (BD Biosciences). All labeling experiments and measurements were performed at least 3 times to confirm the reproducibility and robustness of the method.\n(§3) Daptomycin-TCO was used to magnetically label bacteria using methods similar to those described in Example 1."}, "Gram-positive bacteria [8]": {"test_system": "Gram-positive bacteria", "experiment": "Magnetic resonance detection of bacteria labeled with daptomycin-TCO and MFNP-Tz", "format": "cell-based", "conditions": "daptomycin-TCO then MFNP-Tz", "description": "as §2\nAll μNMR measurements were performed using the portable NMR system recently developed for point-of-care operations as described by Issadore, et al. Lab Chip 2011, 11, 2282-87. The polarizing magnetic field was ˜0.5 T. Transverse relaxation times were measured on 1-2 μL sample volumes, using Carry-Purcell-Meiboom-Gill pulse sequences with the following parameters: echo time, 3 ms; repetition time, 4 s; number of 180° pulses per scan, 900; number of scans, 7.\nas §3"}, "Gram-positive bacteria [9]": {"molecular_target": "Gram-positive bacteria", "experiment": "Competitive inhibition of vancomycin-TCO labeling by unmodified vancomycin", "conditions": "1-200 μM unmodified vancomycin added to 20 μM vancomycin-TCO; fluorescence and magnetic resonance; all Gram-positive bacteria; read-out: inhibition binding constant (Ki)", "description": "For two-step labeling, the washed cells were incubated with 1-20 μM vancomycin TCO in PBS-F at room temperature for 30 min. For competition studies, 1-200 μM unmodified vancomycin was added to 20 μM vancomycin-TCO.\nTo further characterize the binding properties of vancomycin-TCO, competitive inhibition studies were performed in which unmodified vancomycin was introduced together with vancomycin-TCO, before reacting with MFNP-Tz.\nFIGS. 8A and 8B show the results of competition studies of vancomycin-TCO using both fluorescence (FIG. 8A) and magnetic resonance (FIG. 8B) measurements. […] The inhibition binding constant (Ki) was about 6 μM for all Gram-positive bacteria, a value which was similar to that of vancomycin-TCO."}}}
{"smiles": "CC[N+](CCNC(=O)OC1CC/C=C/CCC1)=C1C=CC(=C(c2ccc(N(C)C)cc2)c2ccc(N(C)C)cc2)C=C1", "note": "(centres unmarked) [Crystal Violet-TCO, (E)-N-(4-(bis(4-(dimethylamino)phenyl)methylene)cyclohexa-2,5-dien-1-ylidene)-2-(((cyclooct-4-en-1-yloxy)carbonyl)amino)-N-ethylethanaminium chloride]", "values": [{"measurement": "molar extinction coefficient ε592", "setting": "[1]", "result": 133013, "unit": "L/mol/cm"}, {"measurement": "colour after Gram staining and decolorization", "setting": "[2]", "result": "remained purple"}, {"measurement": "UV absorbance of stained bacteria", "setting": "[3]", "result": "intense absorption at 595 nm"}, {"measurement": "cellular relaxivity of Gram-positive species", "setting": "Gram-positive species", "result": "significantly higher cellular relaxivity values when compared to Gram-negative bacteria"}, {"measurement": "detection limit", "setting": "S. aureus [4]", "result": "about 4,000 bacteria"}, {"measurement": "Limit of detection", "setting": "S. aureus [4]; ΔR2", "result": "~4000", "unit": "CFU"}, {"measurement": "transmission electron microscopy observation", "setting": "S. aureus [5]; CV-TCO then GNP-Tz", "result": "Gold nanoparticles were found distributed throughout the bacterial surface"}, {"measurement": "confocal microscopy observation", "setting": "S. aureus [5]; Crystal Violet-TCO then MFNP-Tz", "result": "uniform and high fluorescence signals in the bacterial cell wall"}, {"measurement": "confocal microscopy MFNP-Tz signal", "setting": "E. coli (Gram-negative)", "result": "absence of MFNP-Tz signal"}, {"measurement": "μNMR detection", "setting": "[6]; after decolorization", "result": "only Gram-positive species retained their signals"}, {"measurement": "μNMR detection", "setting": "[6]; before decolorization", "result": "both Gram-positive and negative bacteria could be magnetically labeled and detected"}]}
{"smiles": "C[C@]1(O[C@H]2O[C@H](CO)C(O)C(O)C2NC(=O)OC2CC/C=C/CCC2)OC(CO)[C@@H](O)C(O)C1O", "note": "(stereo partly drawn) [Trehalose-TCO, 1-deoxy-α-D-gluco-hept-2-ulopyranosyl-(2→1)-2-deoxy-2-((E)-cyclooct-4-en-1-yl carbamate)-α-D-glucopyranoside]", "values": [{"measurement": "kinetics of incorporation", "setting": "Nocardia Farcinica; 0-16 h, subsequent labeling with Oregon Green-Tz", "result": "gradual increase in the extent of labeling"}, {"measurement": "cell fluorescence", "setting": "Nocardia Farcinica; 100 μM Trehalose-TCO 16 h, then 10 μM Oregon Green-Tz", "result": "Bright green fluorescence of the cells is observed"}]}
{"smiles": "CN(C)c1ccc(C(=C2C=CC(=[N+](C)C)C=C2)c2ccc(N(C)C)cc2)cc1", "note": "[crystal violet, reference compound]", "values": [{"measurement": "molar extinction coefficient ε592", "setting": "[1]", "result": 89146, "unit": "L/mol/cm"}]}
{"smiles": "CCCCCCCCCC(=O)N[C@@H](Cc1c[nH]c2ccccc12)C(=O)N[C@@H](CC(N)=O)C(=O)N[C@@H](CC(=O)O)C(=O)N[C@@H]1C(=O)NCC(=O)N[C@@H](CCCNC(=O)OC2CC/C=C/CCC2)C(=O)N[C@@H](CC(=O)O)C(=O)N[C@H](C)C(=O)N[C@@H](CC(=O)O)C(=O)NCC(=O)N[C@H](CO)C(=O)N[C@@H]([C@@H](C)CC(=O)O)C(=O)N[C@@H](CC(=O)c2ccccc2N)C(=O)O[C@@H]1C", "note": "(some centres unmarked) [daptomycin-TCO]", "values": [{"measurement": "increased relative fluorescence intensities", "setting": "Gram-positive bacteria [7]", "result": "up to 220%"}, {"measurement": "cellular relaxivity", "setting": "Gram-positive bacteria [8]", "result": "1.32 s^−1[CFU/μL]^−1"}]}
{"smiles": "CN[C@H](CC(C)C)C(=O)N[C@H]1C(=O)N[C@@H](CC(N)=O)C(=O)N[C@H]2C(=O)N[C@H]3C(=O)N[C@H](C(=O)N[C@H](C(=O)O)c4cc(O)cc(O)c4-c4cc3ccc4O)[C@H](O)c3ccc(c(Cl)c3)Oc3cc2cc(c3O[C@@H]2O[C@H](CO)[C@@H](O)[C@H](O)[C@H]2O[C@H]2C[C@](C)(N)[C@H](O)[C@H](C)O2)Oc2ccc(cc2Cl)[C@H]1O", "note": "[vancomycin]", "values": [{"measurement": "Ki", "setting": "Gram-positive bacteria [9]", "result": "~6", "unit": "µM"}]}
